Measured values as given in paper PMC5452050 (ACS Omega, 2017).
Values after ≈ are worked out from the molar mass of the structure shown.

Columns and labels:
MV4-11 cells = assay: MV4-11 cell proliferation; assay type: cell-based; conditions: for EC50: Homo sapiens, MV4-11, 72 h, read-out: MV4-11 EC50
[1] = biological target: T1, recombinant human FLT3 (571–993) (Homo sapiens, UniProt P36888); assay: biochemical; assay type: biochemical; conditions: for IC50: FLT3 IC50, FLT3^WT enzyme, 500 μM ATP
T1 sequence (P36888 571-993): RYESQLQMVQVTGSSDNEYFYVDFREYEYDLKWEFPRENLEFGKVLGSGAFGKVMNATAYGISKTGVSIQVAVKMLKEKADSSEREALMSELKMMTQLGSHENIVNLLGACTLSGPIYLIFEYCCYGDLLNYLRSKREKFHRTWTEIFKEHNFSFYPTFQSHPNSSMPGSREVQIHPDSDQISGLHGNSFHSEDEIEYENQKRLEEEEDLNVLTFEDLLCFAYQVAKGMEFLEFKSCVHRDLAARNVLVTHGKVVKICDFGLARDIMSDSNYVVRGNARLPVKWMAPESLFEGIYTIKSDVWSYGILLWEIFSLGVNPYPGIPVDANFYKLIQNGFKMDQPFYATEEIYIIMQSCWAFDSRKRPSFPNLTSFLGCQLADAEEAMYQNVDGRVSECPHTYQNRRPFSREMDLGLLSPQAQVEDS

FLT3-ITD phosphorylation = assay: Western blot of FLT3 signaling in MOLM13^FLT3-ITD cells; assay type: cell-based; conditions: 1 h, read-out: FLT3 IC50 estimated from loss of FLT3-ITD phosphorylation
Plasma stability [2] = assay type: in vitro ADME; conditions: human
Plasma stability [3] = assay type: in vitro ADME; conditions: mouse
[4] = test system: MOLM13^FLT3-ITD/D835Y cells; assay: MOLM13 cell viability; assay type: cell-based; conditions: Homo sapiens, MOLM-13, 72 h, read-out: MOLM13^FLT3-ITD/D835Y IC50
[5] = Liver microsomal stability; conditions: rat, liver microsomes, pH 7.4
[6] = Liver microsomal stability; conditions: both, human, liver microsomes, pH 7.4
Solubility = assay type: physicochemical; conditions: buffer, pH 7.4, aqueous buffer, kinetic from dmso stock
[7] = Liver microsomal stability; conditions: female, CD-1, mouse, liver microsomes, pH 7.4
[8] = Liver microsomal stability; conditions: dog, liver microsomes, pH 7.4
MOLM13^FLT3-ITD cells = assay: MOLM13 cell viability; assay type: cell-based; conditions: Homo sapiens, MOLM-13, 72 h, read-out: MOLM13^FLT3-ITD IC50
Plasma stability [9] = assay type: in vitro ADME; conditions: rat
BJ cells = assay: BJ fibroblast proliferation; assay type: cell-based; conditions: Homo sapiens, 72 h, read-out: BJ EC50, 72 h

## CC(C)(C)Nc1ccnc(Nc2cccc(-c3cccnc3)c2)n1 [Compound 5f, N^4-(tert-Butyl)-N^2-(3-(pyridin-3-yl)phenyl)pyrimidine-2,4-diamine]
MV4-11 cells
  fold improvement in MV4-11 growth inhibition relative to 1: approximately 10 fold

## CC[C@H](C)Nc1ccnc(Nc2cccc(-c3cccnc3)c2)n1 [Compound 5j, (S)-N^4-(sec-Butyl)-N^2-(3-(pyridin-3-yl)phenyl)pyrimidine-2,4-diamine]
MV4-11 cells
  fold improvement in MV4-11 growth inhibition relative to 1: approximately 10 fold

## CC[C@@H](C)Nc1ccnc(Nc2cccc(-c3cccnc3)c2)n1 [Compound 5k, (R)-N^4-(sec-Butyl)-N^2-(3-(pyridin-3-yl)phenyl)pyrimidine-2,4-diamine]
MV4-11 cells
  fold improvement in MV4-11 growth inhibition relative to 1: approximately 10 fold

## c1cncc(-c2cccc(Nc3nccc(NC4CCNCC4)n3)c2)c1 [Compound 5q, N^4-(Piperidin-4-yl)-N^2-(3-(pyridin-3-yl)phenyl)pyrimidine-2,4-diamine]
[1]
  fold more potent than 1 against FLT3: approximately 4 fold

## CC(C)Nc1ccnc(Nc2cccc(-c3cnccn3)c2)n1 [Compound 6k, N^4-Isopropyl-N^2-(3-(pyrazin-2-yl)phenyl)pyrimidine-2,4-diamine]
FLT3-ITD phosphorylation
  IC50: 50 to 100 nM
Plasma stability [2]
  plasma stability: >50 h
Plasma stability [3]
  plasma stability: >50 h
[4]
  IC50: 77 nM
[5]
  CLint scaled at 4 µM: 122 mL/min/kg
  half-life at 4 µM: 22.8 ± 0.6 min
[6]
  CLint scaled at 4 µM: 14.2 mL/min/kg
  half-life at 4 µM: 87.6 ± 6 min
Solubility
  solubility at 18 h: 56.9 ± 1.9 µM (≈ 17.4 µg/mL)
[7]
  CLint scaled at 4 µM: 485 mL/min/kg
  half-life at 4 µM: 7.08 ± 0.18 min
[8]
  CLint scaled at 4 µM: 37 mL/min/kg
  half-life at 4 µM: 54 ± 1.2 min
MOLM13^FLT3-ITD cells
  IC50: 45 nM
Plasma stability [9]
  plasma stability: >50 h

## c1cncc(-c2cccc(Nc3cccc(NC4CCCCC4)n3)c2)c1 [Compound 9, N^2-Cyclohexyl-N^6-(3-(pyridin-3-yl)phenyl)pyridine-2,6-diamine]
MV4-11 cells
  EC50: > 10 µM
BJ cells
  EC50: > 10 µM
[1]
  IC50: 80 nM

## c1cncc(-c2cccc(Nc3cc(NC4CCCCC4)ccn3)c2)c1 [Compound 13, N^4-cyclohexyl-N^2-(3-(pyridin-3-yl)phenyl)pyridine-2,4-diamine]
MV4-11 cells
  EC50: > 16 µM
BJ cells
  EC50: 10.6 µM
[1]
  IC50: 1500 nM

## c1cncc(-c2cccc(Nc3ccnc(NC4CCCCC4)c3)c2)c1 [Compound 14, N^2-Cyclohexyl-N^4-(3-(pyridin-3-yl)phenyl)pyridine-2,4-diamine]
MV4-11 cells
  EC50: > 8 µM
BJ cells
  EC50: 8.74 µM
[1]
  IC50: 141 nM

## CN(c1ccnc(Nc2cccc(-c3cccnc3)c2)n1)C1CCCCC1 [Compound 16, N^4-Cyclohexyl-N^4-methyl-N^2-(3-(pyridin-3-yl)phenyl)pyrimidine-2,4-diamine]
MV4-11 cells
  EC50: > 8 µM
[1]
  IC50: 82 nM

## CN(c1cccc(-c2cccnc2)c1)c1nccc(N(C)C2CCCCC2)n1 [Compound 17, N^4-Cyclohexyl-N^2,N^4-dimethyl-N^2-(3-(pyridin-3-yl)phenyl)pyrimidine-2,4-diamine]
MV4-11 cells
  EC50: 0.039 µM
[1]
  IC50: > 15000 nM

## c1cncc(-c2cccc(Nc3nccc(OC4CCCCC4)n3)c2)c1 [Compound 19, 4-(Cyclohexyloxy)-N-(3-(pyridin-3-yl)phenyl)pyrimidin-2-amine]
MV4-11 cells
  EC50: > 6 µM
[1]
  IC50: 187 nM

## c1cncc(-c2cccc(Oc3nccc(OC4CCCCC4)n3)c2)c1 [Compound 20, 4-(Cyclohexyloxy)-2-(3-(pyridin-3-yl)phenoxy)pyrimidine]
MV4-11 cells
  EC50: > 13 µM
[1]
  IC50: 49 nM

## CN(c1cccc(-c2cccnc2)c1)c1nccc(NC2CCCCC2)n1 [Compound 21, N^4-Cyclohexyl-N^2-methyl-N^2-(3-(pyridin-3-yl)phenyl)pyrimidine-2,4-diamine]
MV4-11 cells
  EC50: > 4 µM
[1]
  IC50: > 11000 nM

## c1cncc(-c2cccc(Oc3nccc(NC4CCCCC4)n3)c2)c1 [Compound 22, N-Cyclohexyl-2-(3-(pyridin-3-yl)phenoxy)pyrimidin-4-amine]
MV4-11 cells
  EC50: > 14 µM
[1]
  fold reduction of FLT3 enzymatic activity compared to 1: ~40 fold
  IC50: 1260 nM

## CC(C)(C)c1cc(NC(=O)Nc2ccc(-c3cn4c(n3)sc3cc(OCCN5CCOCC5)ccc34)cc2)no1 [quizartinib, reference compound]
MV4-11 cells
  EC50: 0.0007 µM
BJ cells
  EC50: > 22 µM
